Patent US20080287426A1, “Method of Inducing Resistance to Harmful Fungi” (priority 2005, published 2008)

System: S. tritici
Experiment: S. tritici infection of wheat seedlings after spraying first leaves (induced resistance)
Assay type: in vivo, Septoria tritici
Method: Wheat seedlings at the 2 leaf stage were used in the study. Plants were grown singly in pots and were split into two batches. First leaves were sprayed with pyraclostrobin at the recommended rate (first leaves of controls were sprayed with distilled water) and the plants to be used for disease assessment were inoculated with S. tritici once leaves had dried. Both first and second leaves were inoculated by spraying with a spore suspension of 1×10^5 spores/ml of distilled water containing a drop of Tween 20. Immediately after inoculation, pots were placed in water-saturated trays and covered with clear polyethene bags for 48 h. Thereafter plants were grown at 18° C. with 12 h/12 h light/dark alternation. Infection intensity was assessed 18 days after inoculation by estimating the % leaf area covered by symptoms.

pyraclostrobin
reduced infection on first leaves (after 18 days, compared to non treated controls): 65% | reduced infection on second leaves (after 18 days, compared to non treated controls, only first leaves sprayed): 61% | Infection (% leaf area showing symptoms) First leaf (wheat seedlings, first leaves sprayed at the recommended rate, 18 days after inoculation, means ±SE of 10 replicates, pyraclostrobin-resistant isolate): 17 ± 2.3 % leaf area showing symptoms | reduces S. tritici infection of first and second leaves (wheat seedlings, isolate resistant to pyraclostrobin): > 60% | Infection (% leaf area showing symptoms) Second leaf (wheat seedlings, only first leaves sprayed at the recommended rate, 18 days after inoculation, means ±SE of 10 replicates, pyraclostrobin-resistant isolate): 16 ± 1.4 % leaf area showing symptoms
